Test results: PubChem BioAssay AID1963984 (Molecular Pharmacology Branch, DTP, NCI, 2024)

Tested on: 233499-124-R-J3-PDC spheroids with HUVEC/MSC, viability
Test: Anticancer human tumor 233499-124-R-J3-PDC patient-derived colon adenocarcinoma cell line growth inhibition [PI3K]
Conditions: for IC50: curve of first compound; for viability, T/C: stronger effect = lower value
In short: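 Three cell types, namely tumor cells, endothelial cells and mesenchymal stem cells, formed each spheroid. Combinations with four PI3K inhibitors were screened at clinically achievable concentrations decreasing by half-log, and spheroid viability was recorded.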

[1] = second compound 0.0316 µM, first compound 0.0316 µM
[2] = second compound 0.0316 µM, first compound 0.1 µM
[3] = second compound 0.1 µM, first compound 0.0316 µM
[4] = second compound 0.1 µM, first compound 0.1 µM
[5] = second compound 0.316 µM, first compound 0.0316 µM
[6] = second compound 0.316 µM, first compound 0.1 µM
[7] = second compound 1 µM, first compound 0.0316 µM
[8] = second compound 1 µM, first compound 0.1 µM
[9] = second compound 3.16 µM, first compound 0.0316 µM
[10] = second compound 3.16 µM, first compound 0.1 µM
[11] = second compound 10 µM, first compound 0.0316 µM
[12] = second compound 10 µM, first compound 0.1 µM
[13] = second compound 0.0316 µM, first compound 0.000316 µM
[14] = second compound 0.0316 µM, first compound 0.001 µM
[15] = second compound 0.0316 µM, first compound 0.00316 µM
[16] = second compound 0.0316 µM, first compound 0.01 µM
[17] = second compound 0.1 µM, first compound 0.000316 µM
[18] = second compound 0.1 µM, first compound 0.001 µM
[19] = second compound 0.1 µM, first compound 0.00316 µM
[20] = second compound 0.1 µM, first compound 0.01 µM
[21] = second compound 0.316 µM, first compound 0.000316 µM
[22] = second compound 0.316 µM, first compound 0.001 µM
[23] = second compound 0.316 µM, first compound 0.00316 µM
[24] = second compound 0.316 µM, first compound 0.01 µM
[25] = second compound 1 µM, first compound 0.000316 µM
[26] = second compound 1 µM, first compound 0.001 µM
[27] = second compound 1 µM, first compound 0.00316 µM
[28] = second compound 1 µM, first compound 0.01 µM
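Further: spheroids exposed to agents for seven days before readout.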
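Wherever viability, T/C is given: percent viability relative to DMSO vehicle control taken as 100%.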

## CCCS(=O)(=O)Nc1ccc(F)c(C(=O)c2c[nH]c3ncc(-c4ccc(Cl)cc4)cc23)c1F + CC(Nc1ncnc2nc[nH]c12)c1cc2cccc(Cl)c2c(=O)n1-c1ccccc1
Second compound 0.0316 µM
  IC50: 4970 nM
Second compound 0.1 µM
  IC50: 5130 nM
Second compound 0.316 µM
  IC50: 5490 nM
Second compound 1 µM
  IC50: 4610 nM
Second compound 3.16 µM
  IC50: 4580 nM
Second compound 10 µM
  IC50: 4400 nM
[1]
  viability, T/C: 80.7%
[2]
  viability, T/C: 77.9%
Second compound 0.0316 µM, first compound 0.316 µM
  viability, T/C: 97.8%
Second compound 0.0316 µM, first compound 1 µM
  viability, T/C: 98.2%
Second compound 0.0316 µM, first compound 3.16 µM
  viability, T/C: 80%
Second compound 0.0316 µM, first compound 10 µM
  viability, T/C: 3.53%
[3]
  viability, T/C: 97.1%
[4]
  viability, T/C: 100%
Second compound 0.1 µM, first compound 0.316 µM
  viability, T/C: 90.6%
Second compound 0.1 µM, first compound 1 µM
  viability, T/C: 97.6%
Second compound 0.1 µM, first compound 3.16 µM
  viability, T/C: 82%
Second compound 0.1 µM, first compound 10 µM
  viability, T/C: 5.89%
[5]
  viability, T/C: 81.3%
[6]
  viability, T/C: 103%
Second compound 0.316 µM, first compound 0.316 µM
  viability, T/C: 93.6%
Second compound 0.316 µM, first compound 1 µM
  viability, T/C: 94.6%
Second compound 0.316 µM, first compound 3.16 µM
  viability, T/C: 93.2%
Second compound 0.316 µM, first compound 10 µM
  viability, T/C: 3.19%
[7]
  viability, T/C: 90.3%
[8]
  viability, T/C: 99.7%
Second compound 1 µM, first compound 0.316 µM
  viability, T/C: 99.7%
Second compound 1 µM, first compound 1 µM
  viability, T/C: 96.5%
Second compound 1 µM, first compound 3.16 µM
  viability, T/C: 71.8%
Second compound 1 µM, first compound 10 µM
  viability, T/C: 5.59%
[9]
  viability, T/C: 94.7%
[10]
  viability, T/C: 99.2%
Second compound 3.16 µM, first compound 0.316 µM
  viability, T/C: 90.6%
Second compound 3.16 µM, first compound 1 µM
  viability, T/C: 85.7%
Second compound 3.16 µM, first compound 3.16 µM
  viability, T/C: 74.3%
Second compound 3.16 µM, first compound 10 µM
  viability, T/C: 2.26%
[11]
  viability, T/C: 78.5%
[12]
  viability, T/C: 92.2%
Second compound 10 µM, first compound 0.316 µM
  viability, T/C: 92.1%
Second compound 10 µM, first compound 1 µM
  viability, T/C: 74.8%
Second compound 10 µM, first compound 3.16 µM
  viability, T/C: 70.6%
Second compound 10 µM, first compound 10 µM
  viability, T/C: 3.63%

## CC(C)n1nc(-c2ccc3oc(N)nc3c2)c2c(N)ncnc21 + COc1c(OCCCN2CCOCC2)ccc2c3n(c(=NC(=O)c4cnc(N)nc4)nc12)CCN3
Second compound 0.00316 µM
  IC50: > 100 nM
Second compound 0.01 µM
  IC50: > 100 nM
Second compound 0.0316 µM
  IC50: 54.9 nM
Second compound 0.1 µM
  IC50: 5.17 nM
Second compound 0.316 µM
  IC50: < 0.316 nM
Second compound 1 µM
  IC50: < 0.316 nM
Second compound 0.00316 µM, first compound 0.000316 µM
  viability, T/C: 98.3%
Second compound 0.00316 µM, first compound 0.001 µM
  viability, T/C: 90.8%
Second compound 0.00316 µM, first compound 0.00316 µM
  viability, T/C: 74.6%
Second compound 0.00316 µM, first compound 0.01 µM
  viability, T/C: 80.3%
Second compound 0.00316 µM, first compound 0.0316 µM
  viability, T/C: 83%
Second compound 0.00316 µM, first compound 0.1 µM
  viability, T/C: 65.1%
Second compound 0.01 µM, first compound 0.000316 µM
  viability, T/C: 84.1%
Second compound 0.01 µM, first compound 0.001 µM
  viability, T/C: 76.4%
Second compound 0.01 µM, first compound 0.00316 µM
  viability, T/C: 87.8%
Second compound 0.01 µM, first compound 0.01 µM
  viability, T/C: 80.5%
Second compound 0.01 µM, first compound 0.0316 µM
  viability, T/C: 62.3%
Second compound 0.01 µM, first compound 0.1 µM
  viability, T/C: 60.2%
[13]
  viability, T/C: 79.9%
[14]
  viability, T/C: 86.5%
[15]
  viability, T/C: 73.7%
[16]
  viability, T/C: 80.6%
[1]
  viability, T/C: 71%
[2]
  viability, T/C: 27%
[17]
  viability, T/C: 77.5%
[18]
  viability, T/C: 51.7%
[19]
  viability, T/C: 56%
[20]
  viability, T/C: 46.8%
[3]
  viability, T/C: 38.7%
[4]
  viability, T/C: 16.9%
[21]
  viability, T/C: 28.4%
[22]
  viability, T/C: 31.3%
[23]
  viability, T/C: 33.6%
[24]
  viability, T/C: 18.6%
[5]
  viability, T/C: 17.2%
[6]
  viability, T/C: 9.14%
[25]
  viability, T/C: 7.93%
[26]
  viability, T/C: 6.08%
[27]
  viability, T/C: 9.7%
[28]
  viability, T/C: 5.56%
[7]
  viability, T/C: 8.2%
[8]
  viability, T/C: 2.93%

## CC(=O)c1c(C)c2cnc(Nc3ccc(N4CCNCC4)cn3)nc2n(C2CCCC2)c1=O + CC(Nc1ncnc2nc[nH]c12)c1cc2cccc(Cl)c2c(=O)n1-c1ccccc1
Second compound 0.0316 µM
  IC50: > 100 nM
Second compound 0.1 µM
  IC50: > 100 nM
Second compound 0.316 µM
  IC50: > 100 nM
Second compound 1 µM
  IC50: > 100 nM
Second compound 3.16 µM
  IC50: > 100 nM
Second compound 10 µM
  IC50: > 100 nM
[13]
  viability, T/C: 99%
[14]
  viability, T/C: 83.9%
[15]
  viability, T/C: 93.1%
[16]
  viability, T/C: 99.5%
[1]
  viability, T/C: 101%
[2]
  viability, T/C: 89%
[17]
  viability, T/C: 92.7%
[18]
  viability, T/C: 99.2%
[19]
  viability, T/C: 93.9%
[20]
  viability, T/C: 115%
[3]
  viability, T/C: 101%
[4]
  viability, T/C: 82.6%
[21]
  viability, T/C: 102%
[22]
  viability, T/C: 91.2%
[23]
  viability, T/C: 93%
[24]
  viability, T/C: 92.2%
[5]
  viability, T/C: 86%
[6]
  viability, T/C: 77.2%
[25]
  viability, T/C: 100%
[26]
  viability, T/C: 86.9%
[27]
  viability, T/C: 78.1%
[28]
  viability, T/C: 71.5%
[7]
  viability, T/C: 76.1%
[8]
  viability, T/C: 81.8%
Second compound 3.16 µM, first compound 0.000316 µM
  viability, T/C: 106%
Second compound 3.16 µM, first compound 0.001 µM
  viability, T/C: 105%
Second compound 3.16 µM, first compound 0.00316 µM
  viability, T/C: 94.2%
Second compound 3.16 µM, first compound 0.01 µM
  viability, T/C: 83.8%
[9]
  viability, T/C: 77.2%
[10]
  viability, T/C: 53.4%
Second compound 10 µM, first compound 0.000316 µM
  viability, T/C: 86.3%
Second compound 10 µM, first compound 0.001 µM
  viability, T/C: 103%
Second compound 10 µM, first compound 0.00316 µM
  viability, T/C: 92.9%
Second compound 10 µM, first compound 0.01 µM
  viability, T/C: 86.2%
[11]
  viability, T/C: 82.4%
[12]
  viability, T/C: 68.7%

## Cn1cnc2c(F)c(Nc3ccc(Br)cc3Cl)c(C(=O)NOCCO)cc21
Compound 0.00949 µM
  viability, T/C: 80.2% [middle of 4 runs]
Compound 0.0949 µM
  viability, T/C: 64.8% [middle of 4 runs]
Compound 0.3 µM
  viability, T/C: 50.3% [middle of 4 runs]
Compound 0.949 µM
  viability, T/C: 49.8% [middle of 4 runs]
Compound 3 µM
  viability, T/C: 30.5% [middle of 4 runs]
